In article PMC12524732 (2025):

Tests used:
[1] = test system: dsDNA duplex (DNA, duplex) GTAACTAGTTAACGATC/GATCGTTAACTAGTTAC; assay: 1H-NMR titration; conditions: 20 mM KCl; 10 mM KH2PO4, pH 7.0, 25 °C; 0.2 mM DNA; up to 4 equivalents; no shifts
[2] = test system: c-KIT2 (DNA, G4) CGGGCGGGCGCTAGGGAGGGT; assay: 1H-NMR titration; conditions: 20 mM KCl; 10 mM KH2PO4, pH 7.0, 25 °C; 0.2 mM DNA; up to 8 equivalents; shifts up to ~50 Hz, 5′ G-quartet
[3] = test system: c-MYC (DNA, G4) TGAGGGTGGGTAGGGTGGGTAA; assay: ITC; conditions: 20 mM KCl; 10 mM KH2PO4, pH 7.0, 25 °C; ~20 µM DNA; up to 8 equivalents; Kb and n not determinable
[4] = test system: mutTel24 (DNA, G4) TTGGGTTAGGGTTAGGGTTAGGGA; assay: 1H-NMR titration; conditions: 20 mM KCl; 10 mM KH2PO4, pH 7.0, 25 °C; 0.2 mM DNA; up to 4 equivalents; no shifts
[5] = test system: c-MYC (DNA, G4) TGAGGGTGGGTAGGGTGGGTAA; assay: 1H-NMR titration; conditions: 20 mM KCl; 10 mM KH2PO4, pH 7.0, 25 °C; 0.2 mM DNA; up to 8 equivalents; shifts up to ~70 Hz, mainly 3′ G-quartet
[6] = test system: c-KIT2 (DNA, G4) CGGGCGGGCGCTAGGGAGGGT; assay: ITC; conditions: 20 mM KCl; 10 mM KH2PO4, pH 7.0, 25 °C; ~20 µM DNA; up to 8 equivalents; Kb and n not determinable

Q: For `CC[C@]1(O)C[C@H]2CN(CCc3c([nH]c4ccccc34)[C@@](C(=O)OC)(c3cc4c(cc3OC)N(C=O)[C@H]3[C@@](O)(C(=O)OC)[C@H](OC(C)=O)[C@]5(CC)C=CCN6CC[C@]43[C@@H]65)C2)C1`, which binding [1] is on record?
A: Its binding is “no”.

Q: And the binding [2]?
A: Its binding is “weak”.

Q: And the “ΔH°” value [3]?
A: The value was −11.7 ± 2.0 kJmol^−1.

Q: And the binding [4]?
A: The binding was “no”.

Q: And the binding [5]?
A: The binding was “weak”.

Q: What about the “ΔH°” value [6] of the same molecule?
A: The value was −52.8 ± 5.8 kJmol^−1.
